Data from patent US20260376293A1, “METHODS FOR STUDYING GPR158 PHARMACOLOGY AND IDENTIFICATION OF ITS LIGANDS” (UNIVERSITY OF FLORIDA RESEARCH FOUNDATION, INCORPORATED, priority 2022, published 2026).

Columns and labels:
[1] = system: stress-induced depressive rat; conditions: cited from earlier work
[2] = system: GPR158 R173A, E271A, and Y269A mutants; experiment: GAP BRET assay on GPR158 mutants defective in glycine binding; type: cell-based, human
Text: (§1) FIGS. 11A-11G. Probing Cache domain of GPR158 as a ligand binding site A) Computational docking of glycine into putative ligand binding pocket on GPR158 Cache domain. Glycine and directly interacting residues are shown as sticks. Hydrogen bonds and van der Waals interactions are shown as dotted lines. B) Diagram showing interactions in the docked model of glycine against GPR158 Cache domain. Hydrogen bonds are shown as dashed lines, van der Waals interactions are shown as intersecting semicircles, and the secondary structural context of Ser266 and Tyr269 is shown as an arc. Dagger indicates a residue implicated in glycine binding in 11A. […] Error bars are mean±s.e.m. of 3 independent experiments in triplicate. *p<0.05, **p<0.01, ***p<0.001, ****p<0.0001, ns=p>0.05, two-way ANOVA Columns with no fill (Ctrl), columns with angled-line fill (Glycine) E) Quantification of glycine inhibitory effect on kGAP normalized to the effect seen with WT receptor. […]
(§2) Cellular measurements of BRET between Venus-Gβ1γ2 and masGRK3ct-Nluc were performed to examine GAP activity of RGS protein in living cells (described in detail in Masuho et al., 2015 (40)). […] The BRET signal was determined by calculating the ratio of the light emitted by the Venus-Gβ1γ2 (535 nm with a 30 nm band path width) over the light emitted by the masGRK3ct-Nluc (475 nm with a 30 nm band path width). […]

GPR158 S266A mutant = biological target: T1, GPR158 S266A mutant (Homo sapiens, UniProt Q5T848, S266A); experiment: GAP BRET assay on GPR158 mutant S266A; type: cell-based
T1 construct: RGS7/Gβ5 co-expressed in the GAP BRET row only
T1 sequence (Q5T848 24-1215 S266A): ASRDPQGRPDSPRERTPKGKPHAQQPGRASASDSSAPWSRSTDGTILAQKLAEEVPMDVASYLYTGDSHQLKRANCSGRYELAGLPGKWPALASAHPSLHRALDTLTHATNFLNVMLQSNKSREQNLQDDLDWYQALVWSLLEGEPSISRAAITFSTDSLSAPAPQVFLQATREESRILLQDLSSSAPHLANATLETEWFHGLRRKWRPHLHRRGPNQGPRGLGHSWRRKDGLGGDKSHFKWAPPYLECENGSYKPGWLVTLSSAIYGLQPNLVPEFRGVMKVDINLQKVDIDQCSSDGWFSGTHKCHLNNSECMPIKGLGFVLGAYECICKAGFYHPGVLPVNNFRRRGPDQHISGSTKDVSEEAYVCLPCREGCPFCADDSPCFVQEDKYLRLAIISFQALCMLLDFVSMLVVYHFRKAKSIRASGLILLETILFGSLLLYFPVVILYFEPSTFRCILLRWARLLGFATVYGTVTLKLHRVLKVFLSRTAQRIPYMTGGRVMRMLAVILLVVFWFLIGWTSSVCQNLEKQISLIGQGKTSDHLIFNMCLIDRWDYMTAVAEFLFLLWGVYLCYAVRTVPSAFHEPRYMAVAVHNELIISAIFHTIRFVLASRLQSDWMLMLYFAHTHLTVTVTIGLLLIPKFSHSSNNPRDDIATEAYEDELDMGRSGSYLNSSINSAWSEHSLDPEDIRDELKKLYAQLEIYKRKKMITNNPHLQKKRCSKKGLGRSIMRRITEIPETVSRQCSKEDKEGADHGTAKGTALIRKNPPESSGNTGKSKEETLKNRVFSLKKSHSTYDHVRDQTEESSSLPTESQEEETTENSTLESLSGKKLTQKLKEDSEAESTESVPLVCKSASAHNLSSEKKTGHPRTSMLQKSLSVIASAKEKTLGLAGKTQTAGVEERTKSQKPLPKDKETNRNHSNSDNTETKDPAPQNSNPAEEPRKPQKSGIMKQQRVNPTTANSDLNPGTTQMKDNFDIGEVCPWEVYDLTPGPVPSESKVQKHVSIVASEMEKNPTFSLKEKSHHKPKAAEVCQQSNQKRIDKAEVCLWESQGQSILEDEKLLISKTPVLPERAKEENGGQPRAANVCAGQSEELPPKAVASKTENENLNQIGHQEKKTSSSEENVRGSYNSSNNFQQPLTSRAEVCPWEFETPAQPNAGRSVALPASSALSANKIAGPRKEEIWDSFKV
Text: as §1, §2

Structure (SMILES) | antidepressant effect [1] | glycine inhibition of GAP activity of RGS7/Gβ5 [2] | regulation of mutant activity by glycine (GPR158 S266A mutant)
NCCS(=O)(=O)O [taurine, 2-aminoethanesulfonic acid] | antidepressant effect |  | 
NCC(=O)O [glycine] |  | lost an ability to inhibit the GAP-activity of RGS7/Gβ5 | unable to be regulated
